Tests used:
Assay type in all cases: in vivo
[1] = system: milkweed bug (Oncopeltus faciatus [Dallas]); assay: Initial contact activity against milkweed bug (percent kill); settings: 72 hours exposure, read-out: Percent Kill MWB, initial activity
Procedure: (§1) The test compound was dissolved in a small amount of acetone, and the acetone solution was dispersed in water containing one drop of isooctylphenyl polyethoxyethanol to make a solution having 1250 ppm (w/w) active ingredient. Aliquots of this solution were diluted with an appropriate amount of water to provide solutions containing various concentrations of active ingredient. Test organisms and techniques were as follows: the activity against Mexican bean beetle (Epilachna varivestis Muls.) and southern armyworm (Spodoptera eridania [Cram.]) was evaluated by dipping the leaves of pinto bean plants into the test solution and infesting the leaves with the appropriate immature-form insects when the foliage had dried. The activity against the pea aphid (Acyrthosiphon pisum [Harris]) was evaluated on broad bean plants whose leaves were dipped before infestation with adult aphids. The activity against twospotted spider mites (Tetranychus urticae Koch) was evaluated on pinto bean plants whose leaves were dipped after infestation with adult mites. The activity against the milkweed bug (Oncopeltus faciatus [Dallas]) was evaluated by spraying the test solutions into glass dishes or jars containing the adult insects. Following application of the compound and infestation the tests were maintained in a holding room at 80° F. and 50% relative humidity for an exposure period of 72 hours. At the end of this time the dead and living insects or mites were counted and the percent kill was calculated. Results of these tests are summarized in Table I. Most of the compounds tested were active against all the insects.

[2] = system: Mexican bean beetle (Epilachna varivestis Muls.); assay: Initial contact activity against Mexican bean beetle (percent kill); settings: 72 hours exposure, read-out: Percent Kill MBB, initial activity
Procedure: as §1

[3] = system: southern armyworm (Spodoptera eridania [Cram.]); assay: Initial contact activity against southern armyworm (percent kill); settings: 72 hours exposure, read-out: Percent Kill AW, initial activity
Procedure: as §1

[4] = system: pea aphid (Acyrthosiphon pisum [Harris]); assay: Initial contact activity against pea aphid (percent kill); settings: 72 hours exposure, read-out: Percent Kill PA, initial activity
Procedure: as §1

[5] = system: twospotted spider mites (Tetranychus urticae Koch); assay: Initial contact activity against twospotted spider mite (percent kill); settings: 72 hours exposure, read-out: Percent Kill SM, initial activity
Procedure: as §1

Structure (SMILES) | mortality at 78 ppm [1] [%] | mortality at 312 ppm [1] [%] | mortality at 1250 ppm [1] [%] | mortality at 20 ppm [2] [%] | mortality at 78 ppm [2] [%] | mortality at 312 ppm [2] [%] | mortality at 78 ppm [3] [%] | mortality at 312 ppm [3] [%] | mortality at 1250 ppm [3] [%] | mortality at 78 ppm [4] [%] | mortality at 312 ppm [4] [%] | mortality at 1250 ppm [4] [%] | mortality at 1250 ppm [5] [%] | mortality at 78 ppm ([5]; 78 ppm) [%] | mortality at 312 ppm ([5]; 312 ppm) [%]
CC1(C)C(C=C(Cl)Sc2ccc(Cl)cc2)C1C(=O)OCc1cccc(Oc2ccccc2)c1 (mixture of isomers) [Example 9, 3-phenoxybenzyl cis,trans-3-[2-(E,Z)-chloro-2-(4-chlorophenylthio)ethenyl]-2,2-dimethylcyclopropanecarboxylate] | 0 | 70 | 90 | 100 | 100 | 100 | 0 | 0 | 20 | 71 | 100 | 100 | 0 | – | –
CC1(C)C(C=C(Cl)Sc2ccc(F)cc2)C1C(=O)OC(C#N)c1cccc(Oc2ccccc2)c1 (mixture of isomers) [Example 8, α-cyano-3-phenoxybenzyl cis,trans-3-[2-(E,Z)-chloro-2-(4-fluorophenylthio)ethenyl]-2,2-dimethylcyclopropanecarboxylate] | 75 | 100 | 100 | 100 | 100 | 100 | 40 | 80 | 90 | 46 | 94 | 93 | 100 | – | –
CC1(C)C(C=CSc2ccc(F)cc2)C1C(=O)OC(C#N)c1cccc(Oc2ccccc2)c1 (mixture of isomers) [Example 6, α-cyano-3-phenoxybenzyl cis,trans-3-[2-(E,Z)-(4-fluorophenylthio)ethenyl]-2,2-dimethylcyclopropanecarboxylate] | 5 | 38 | 100 | 68 | 94 | 100 | 0 | 0 | 56 | 0 | 10 | 100 | 0 | 0 | 0
CC1(C)C(C=C(Cl)Sc2ccccc2)C1C(=O)OC(c1cccc(Oc2ccccc2)c1)C(F)(F)F (mixture of isomers) [Example 7, α-trifluoromethyl-3-phenoxybenzyl cis,trans-3-[2-(E,Z)-chloro-2-phenylthioethenyl]-2,2-dimethylcyclopropanecarboxylate] | 5 | 32 | 100 | 90 | 100 | 100 | 0 | 0 | 0 | 94 | 100 | 100 | 62 | – | –
CC1(C)C(C=C(Br)Sc2ccccc2)C1C(=O)OCc1cccc(Oc2ccccc2)c1 (mixture of isomers) [Example 10, 3-phenoxybenzyl cis,trans-3-[2-(E,Z)-bromo-2-phenylthioethenyl]-2,2-dimethylcyclopropanecarboxylate] | 5 | 71 | 100 | 72 | 95 | 94 | 0 | 44 | 100 | 24 | 94 | 95 | 81 | – | –

— patent publication US4215069A, “Arylthiovinylcyclopropanecarboxylate intermediates” (FMC Corporation, priority 1979, dated 1980)
